# Test results from patent US6506913B2, “Dimethylfurancarboxyanilide derivatives” (Sankyo Company, Limited, priority 1994, dated 2003).
# Experiments:
# Type in all cases: cell-based
# Tyromyces palustris [1] = assay: Wood preservative efficacy on impregnated Sugi sapwood: hyphal growth and maximum crushing strength; set-up: key: +: No hyphal growth was observed on the test material, and no difference was found in the maximum crushing strength from the healthy wood sample.; ±: A little hyphal growth was observed on the test material, or a little decrease was found in the maximum crushing strength.; −: Hyphal growth was observed on the test material, or clear decrease was found in the maximum crushing strength; settings: 0.1 w/v % methanol solution impregnated; weathering twice; 26° C., 3 weeks
# Procedure: (§1) Weathering test was repeated twice in which one cycle of the treatment was washing (about 2 liter per minute supply) with water for 5 hours, and then heating for 19 hours at 60° C. After dry air sterilization, the test samples were prepared. The test materials were placed on the flora of Coriolus versicolor which is a lignin-decomposing fungus, and of Tryomyces palustris which is a cellulose-decomposing fungus, and both of which are designated fungal species for assay of wood preservating effect. Both fungi had been previously grown on an agar medium (malt extract 2%, glucose 1% and peptone 0.5%). After the wood samples were forcedly deteriorated at 26° C. for 3 weeks, the effectiveness was determined from the degree of hyphal growth on the test material and the presence or absence of lowered maximum crushing strength. […] The wood preventive efficacy was judged by the following criteria. +: No hyphal growth was observed on the test material, and no difference was found in the maximum crushing strength from the healthy wood sample. ±: A little hyphal growth was observed on the test material, or a little decrease was found in the maximum crushing strength. −: Hyphal growth was observed on the test material, or clear decrease was found in the maximum crushing strength.
# Coriolus versicolor [2] = assay: as above; set-up: key: +: No hyphal growth was observed on the test material, and no difference was found in the maximum crushing strength from the healthy wood sample.; ±: A little hyphal growth was observed on the test material, or a little decrease was found in the maximum crushing strength.; −: Hyphal growth was observed on the test material, or clear decrease was found in the maximum crushing strength; settings: 0.1 w/v % methanol solution impregnated; weathering twice; 26° C., 3 weeks
# Procedure: as §1
# Serpula lacrymans = assay: Wood preservation test JIS A-9201 (1991): impregnated Sugi sapwood, weathered, forcedly decayed for 12 weeks; settings: weathering 10 cycles, 20° C., mean of 9 samples
# Procedure: (1) According to the test method for wood preservation described in the Japan Industrial Standards [JIS A-9201 (1991)], each of the test compounds was dissolved to a defined concentration in methanol. The solution was impregnated under a reduced pressure into a Sugi (Japanese cedar) sapwood (2×2×1) cm and then air-dried. Weathering test was repeated 10 times in which one cycle of the treatment was stirring in water for 8 hours, and then heating for 16 hours at 60° C. The test material was placed on the flora of Serpula lacrymans which had been previously grown on a quartz sand medium (malt extract 2%, glucose 1%, peptone 0.3% and yeast 0.2%), and forcedly decayed at 20° C. for 12 weeks. From the difference between the dry weight of the test material before the test and that after test, the degree of decrease in weight was obtained. […] The test was carried out by use of 9 samples for each condition, and the values shown in Table 2 are the mean values calculated from 9 samples.
# Tyromyces palustris [3] = assay: Minimum inhibitory concentration by the agar dilution method; settings: potato dextrose agar, 25° C., 5 days
# Description: (§2) Assay of minimum inhibitory concentration by the agar dilution method.
# (§3) According to the agar dilution method, on sterilized media (potato dextrose agar medium; potato extract powder 0.4%, glucose 2%, agar 1.5%) prepared to contain certain concentrations of a test sample, flora (about 4 mm in diameter) of wood rotting fungi, Coriolus versicolor and Tyromyces palustris, which has been cultured previously on the same kind of medium, were inoculated.
# (§4) Whether there is any potentiation or not has been described in Applied Microbiology 9, 538-541 (1961) by F. C. Kull et al. The assay was carried out according to the method usually employed.
# Coriolus versicolor [4] = assay: as above; settings: potato dextrose agar, 25° C., 5 days
# Description: as §2, §3, §4
# [5] = impregnant concentration 0.005 % in methanol
# [6] = impregnant concentration 0.01 % in methanol
Compound,"Wood preventive efficacy, Tyromyces palustris (Tyromyces palustris [1])","Wood preventive efficacy, Coriolus versicolor (Coriolus versicolor [2])",Mean weight decrease by decay (%) (Serpula lacrymans; [5]),Mean weight decrease by decay (%) (Serpula lacrymans; [6]),"MIC (ppm), single agent (Tyromyces palustris [3]) [ppm]","MIC (ppm), single agent (Coriolus versicolor [4]) [ppm]"
"CC(=O)Nc1cccc(NC(=O)c2cc(C)oc2C)c1 [Example 1, 2,5-Dimethylfuran-3-carboxy(3-acetylaminoanilide)]",−,±,,,,
"COC(=O)C=Cc1cccc(NC(=O)c2cc(C)oc2C)c1 [Example 15, 2,5-Dimethylfuran-3-carboxy[3-(2-methoxycarbonylvinyl)anilide]]",−,+,,,,
"Cc1cc(C(=O)Nc2cccc(NC(=O)c3ccccc3)c2)c(C)o1 [Example 8, 2,5-Dimethylfuran-3-carboxy(3-benzoylaminoanilide)]",−,±,,,,
"CCCCCc1cccc(NC(=O)c2cc(C)oc2C)c1 [Example 26, 2,5-Dimethylfuran-3-carboxy(3-pentylanilide)]",+,+,,,,
"Cc1cc(C(=O)Nc2cccc(C(=O)c3ccccc3)c2)c(C)o1 [Example 7, 2,5-Dimethylfuran-3-carboxy(3-benzoylanilide)]",−,+,,,,
"Cc1cc(C(=O)Nc2cccc(C(C)C)c2)c(C)o1 [Example 21, 2,5-Dimethylfuran-3-carboxy(3-isopropylanilide)]",+,+,0,0,200,10.0
"CCCCc1cccc(NC(=O)c2cc(C)oc2C)c1 [Example 24, 2,5-Dimethylfuran-3-carboxy(3-butylanilide)]",+,+,,,,
"CCCCCCc1cccc(NC(=O)c2cc(C)oc2C)c1 [Example 23, 2,5-Dimethylfuran-3-carboxy(3-hexylanilide)]",+,+,,,,
"Cc1cc(C(=O)Nc2cccc(C(=O)OC(C)(C)C)c2)c(C)o1 [Example 5, 2,5-Dimethylfuran-3-carboxy(3-tert-butoxycarbonylanilide)]",−,−,,,,
"COC(=O)c1cccc(NC(=O)c2cc(C)oc2C)c1 [Example 6, 2,5-Dimethylfuran-3-carboxy(3-methoxycarbonylanilide)]",+,+,,,,
"Clc1ccc(OCOCC#CI)cc1 [Control compound 1, 4-Chlorophenyl-3-iodopropargylformal, reference compound]",,,18.6,9.7,2,6
"Cc1cc(C(=O)Nc2cccc(C(=O)N3CCCCC3)c2)c(C)o1 [Example 3, 2,5-Dimethylfuran-3-carboxy[3-(1-piperidylcarbonyl)anilide]]",−,−,,,,
"Cc1cc(C(=O)Nc2cccc(C(=O)Nc3ccccc3)c2)c(C)o1 [Example 4, 2.5-Dimethylfuran-3-carboxyl[3-(N-phenylcarbamoyl)anilide]]",−,−,,,,
"CCOC(=O)OCC(I)=C(Br)I [Control compound 2, 3-Bromo-2,3-diiodo-2-propenylethylcarbonate, reference compound]",+,+,,,25,15
"CCOCc1cccc(NC(=O)c2cc(C)oc2C)c1 [Example 12, 2,5-Dimethylfuran-3-carboxy(3-ethoxymethylanilide)]",±,±,,,,
"CCCCC(=O)Nc1cccc(NC(=O)c2cc(C)oc2C)c1 [Example 9, 2,5-Dimethylfuran-3-carboxy(3-valerylaminoanilide)]",−,−,,,,
CCCCNC(=O)OCC#CI [B],,,,,2.5,25
"COc1ccc(Cc2cccc(NC(=O)c3cc(C)oc3C)c2)cc1 [Example 14, 2,5-Dimethylfuran-3-carboxy[3-(4-methoxybenzyl)anilide]]",+,+,,,,
"COCc1cccc(NC(=O)c2cc(C)oc2C)c1 [Example 11, 2,5-Dimethylfuran-3-carboxy(3-methoxymethylanilide)]",±,+,,,,
"CCc1cccc(NC(=O)c2cc(C)oc2C)c1 [Example 20, 2,5-Dimethylfuran-3-carboxy(3-ethylanilide)]",+,+,0.1,0,200,2.5
"Cc1cc(C(=O)Nc2cccc(NC(=O)C3CCCCC3)c2)c(C)o1 [Example 10, 2,5-Dimethylfuran-3-carboxy(3-cyclohexylcarbonylaminoanilide)]",−,+,,,,
"CCC(C)c1cccc(NC(=O)c2cc(C)oc2C)c1 (stereo not drawn) [Example 25, 2,5-Dimethylfuran-3-carboxy(3-sec-butylanilide)]",+,+,,,,
"CNC(=O)c1cccc(NC(=O)c2cc(C)oc2C)c1 [Example 2, 2.5-Dimethylfuran-3-carboxy[3-(N-methylcarbamoyl)anilide]]",−,−,,,,
"Cc1cc(C(=O)Nc2cccc(COC(C)C)c2)c(C)o1 [Example 13, 2,5-Dimethylfuran-3-carboxy(3-isopropyloxymethylanilide)]",+,+,,,,
